≈ marks a conversion by molar mass, not a printed value.
How the values were obtained:
[1] = Determination of water solubility in phosphate buffer; format: physicochemical; conditions: for solubility at 24 h: thermodynamic from solid
Summary of the method: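 Thermodynamic solubility: compound concentration measured by LC/MS/MS in the vacuum filtrate after 24 h shaking at room temperature of 2 mg powder in 500 μL phosphate buffer at pH 1.2, 4.5, 6.8 or 7.4.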

[2] = Stability in mouse liver microsome; format: in vitro ADME; conditions: 2 μM, 37° C., 30 minutes
Stability in dog plasma = format: in vitro ADME
Excerpt: (§1) Experimental instruments: thermostatic shaker (SHA-B, Guohua Electric Appliance Co., Ltd.); centrifuge (5810R, Eppendorf); mass spectrometry (AP4000, Applied Biosystems, USA); liquid chromatography (LC-30AD, Shimadzu); sample injector (CTC Analytics AG System, CTC).
(§2) Test animals: plasma of human (batch number: BRH1343165), rat (batch number: RAT336728), mouse (batch number: MSE280000), dog (batch number: BGL99137) and monkey (batch number: PH-Monkey-20180821) are purchased from Shanghai Sixin Biological Technology Co., Ltd.
(§3) Experimental process: the compound of the present invention was dissolved in an organic solvent to obtain a 1 mM working solution. 3 μL of the working solution were added to 597 μL of pre-incubated human or rat plasma and mixed well. 50 μL of the solution were immediately taken out as the 0 minute sample. The remaining sample was incubated at 37° C., and 50 μL of sample were taken out at 15, 30, 60 and 120 minutes respectively. All the samples taken out were immediately processed to precipitate protein, and centrifuged to obtain a supermate for the determination of the compound concentration by LC/MS/MS.

[3] = Stability in monkey plasma; format: in vitro ADME
[4] = Pharmacokinetics assay in dog (nitroxoline concentration in plasma after single intravenous or oral administration); format: in vivo, beagle dog; conditions: for absorption in beagle dogs compared with nitroxoline: conclusion in words; for AUC0-inf: nitroxoline in beagle dog plasma
Excerpt: Nitroxoline is mainly metabolized by the phase II metabolism in liver with a fast metabolism rate, so it has a short half-life in the body. The present invention modified its structure and 13 compounds of formula (I) were obtained through chemical synthesis. The change of nitroxoline concentration in dog plasma after a single intravenous or oral administration of nitroxoline and the compound of formula (I) was studied to evaluate the pharmacokinetic behavior of nitroxoline and the compound of formula (I) in dog body.
Male beagle dog (Beijing Marshall Biotechnology Co., Ltd., Certificate No.: SCXK (BJ) 2016-0001, Qualified number: 11400600001728), 3 dogs per group, weight 10 to 13 kg, 20 to 22 months old. The dogs were fasted overnight before the administration with free access to water, and fed 4 hours after the administration. The test compound was added to an EP tube, and then added with DMSO, solutol and sterilized water for injection (the volume ratio of the three was 1:2:17, v:v:v). The EP tube was subjected to ultrasound for 20 minutes to make the test compound dissolve well (compound concentration: 0.005 mmol/mL). The dose for intravenous administration was 0.01 mmol/kg, and the dose for oral administration was 0.1 mmol/kg. 0.3 ml of whole blood was collected from jugular vein before the administration (0 hour) and 0.0833, 0.25, 0.5, 1, 2, 4, 6, 8, 10 and 12 hours after the administration (sampling points can be adjusted according to the specific situation) respectively. The blood sample was placed in a centrifuge tube containing EDTA-K2 anticoagulant (Aldrich), and the centrifuge tube was left to stand in ice. The blood sample was centrifuged for 10 minutes at 1530 g within 0.5 hour to obtain all clean plasma. The plasma was placed in another clean centrifuge tube, and stored in a refrigerator at −20° C. for later use.
Solution for standard curve was formulated. 1000 μL of internal standard working solution (containing a solution of verapamil (5 ng/mL, Aldrich), glibenclamide (50 ng/mL, Aldrich) and diclofenac (50 ng/mL, Aldrich) in acetonitrile) was added to 10 μL of the solution for standard curve and sample, and the mixture was shaked by vortex for 5 minutes. The mixture was centrifuged for 10 minutes at 4° C., 3700 rpm. 60 μL of the supernatant were placed in an injection tube, and mixed with 120 μL of water. 10 μL of the solution were injected into the liquid chromatography-mass spectrometry system for determination. The pharmacokinetic parameters were calculated by the WinNonlin V 6.2 non-compartmental model.

[5] = Stability in human plasma
Excerpt: as §1, §2, §3

[6] = Stability in dog liver microsome; conditions: 2 μM, 37° C., 30 minutes
[7] = Stability in rat liver microsome; conditions: 2 μM, 37° C., 30 minutes
[8] = Stability in human liver microsome; conditions: 2 μM, 37° C., 30 minutes
Description: Experimental instruments: thermostatic shaker (SHA-B, Guohua Electric Appliance Co., Ltd.); centrifuge (5810R, Eppendorf); mass spectrometry (API4000, Applied Biosystems, USA); liquid chromatography (LC-30AD, Shimadzu); sample injector (CTC Analytics AG System, CTC).
Experimental process: 25 μg/mL alamethicin (Aldrich), 5 mM magnesium chloride and 0.5 mg/mL microsome (XENOTECH) were added to 100 mM phosphate buffer to obtain a coenzyme-free reaction solution. A portion of the coenzyme-free reaction solution was added with 1 mM reductive nicotinamide adenine dinucleotide phosphate (Aldrich) and 5 mM uridine diphosphate glucuronic acid (Aldrich) to obtain a coenzyme-containing reaction solution. The working solution of the compound of the present invention was added to the two reaction solutions so that the final concentration of the compound was 2 μM. Immediately after mixing well, 50 μL of the solution were taken out as the 0 minute sample, and 50 μL of the remaining sample were taken out after incubating at 37° C. for 30 minutes. All the samples taken out were immediately processed to precipitate protein, and centrifuged to obtain a supernate for the determination of the compound concentration by LC/MS/MS.

[9] = aqueous buffer, phosphate buffer pH 4.5, room temperature
[10] = aqueous buffer, phosphate buffer pH 6.8, room temperature
[11] = aqueous buffer, phosphate buffer pH 7.4, room temperature
[12] = simulated gastric fluid, phosphate buffer pH 1.2, room temperature
[13] = oral administration 0.1 mmol/kg

| SMILES | solubility at 24 h [1, 9] [µg/mL] | solubility at 24 h [1, 10] [µg/mL] | solubility at 24 h [1, 11] [µg/mL] | solubility at 24 h [1, 12] [µg/mL] | Percentage of the compound remaining in mouse liver microsome ([2]; with coenzyme) [%] | Percentage of the compound remaining in mouse liver microsome ([2]; without coenzyme) [%] | absorption in beagle dogs compared with nitroxoline [4] | AUC0-inf [4, 13] [ng*hmL^−1] | Percentage of the compound remaining in dog liver microsome ([6]; with coenzyme) [%] | Percentage of the compound remaining in dog liver microsome ([6]; without coenzyme) [%] | Percentage of the compound remaining in rat liver microsome ([7]; with coenzyme) [%] | Percentage of the compound remaining in rat liver microsome ([7]; without coenzyme) [%] | Percentage of the compound remaining in human liver microsome ([8]; with coenzyme) [%] | Percentage of the compound remaining in human liver microsome ([8]; without coenzyme) [%] | other results |
| --- | --- | --- | --- | --- | --- | --- | --- | --- | --- | --- | --- | --- | --- | --- | --- |
| CCC(CC)C(=O)OCOc1ccc([N+](=O)[O-])c2cccnc12 [Compound 5, (5-nitroquinolin-8-yloxy)methyl 2-ethylbutanoate] | 13.1 (≈ 41.1 µM) | 11.1 (≈ 34.9 µM) | 13 (≈ 40.9 µM) | 204 (≈ 640 µM) | 0.44 | 0.34 | well absorbed | 1760 | 0.19 | 4.06 | 0.16 | 1.10 | 0.15 | 0.88 | Percentage of the compound remaining in plasma (Stability in dog plasma; 0 minute): 100.0%; Percentage of the compound remaining in plasma (Stability in dog plasma; 37° C., 15 minutes): 75.0%; Percentage of the compound remaining in plasma (Stability in dog plasma; 37° C., 30 minutes): 50.6%; Percentage of the compound remaining in plasma (Stability in dog plasma; 37° C., 60 minutes): 27.1%; Percentage of the compound remaining in plasma (Stability in dog plasma; 37° C., 120 minutes): 12.0%; Percentage of the compound remaining in plasma ([3]; 0 minute): 100.0%; Percentage of the compound remaining in plasma ([3]; 37° C., 15 minutes): 0.0%; Percentage of the compound remaining in plasma ([3]; 37° C., 30 minutes): 0.0%; Percentage of the compound remaining in plasma ([3]; 37° C., 60 minutes): 0.0%; Percentage of the compound remaining in plasma ([3]; 37° C., 120 minutes): 0.0%; Percentage of the compound remaining in plasma (Stability in rat plasma; 0 minute): 100.0%; Percentage of the compound remaining in plasma (Stability in rat plasma; 37° C., 15 minutes): 2.2%; Percentage of the compound remaining in plasma (Stability in rat plasma; 37° C., 30 minutes): 0.0%; Percentage of the compound remaining in plasma (Stability in rat plasma; 37° C., 60 minutes): 0.0%; Percentage of the compound remaining in plasma (Stability in rat plasma; 37° C., 120 minutes): 0.0%; Percentage of the compound remaining in plasma ([5]; 0 minute): 100.0%; Percentage of the compound remaining in plasma ([5]; 37° C., 15 minutes): 68.5%; Percentage of the compound remaining in plasma ([5]; 37° C., 30 minutes): 39.5%; Percentage of the compound remaining in plasma ([5]; 37° C., 60 minutes): 11.9%; Percentage of the compound remaining in plasma ([5]; 37° C., 120 minutes): 1.6% |
| CC(C)C(=O)N1CCC[C@H]1C(=O)OCOc1ccc([N+](=O)[O-])c2cccnc12 [Compound 20, (S)-(5-nitroquinolin-8-yloxy)methyl 1-isopropionylpyrrolidine-2-carboxylate] | 1050 (≈ 2700 µM) | 962 (≈ 2480 µM) | 978 (≈ 2530 µM) | 1010 (≈ 2610 µM) | 0.09 | 49.07 | well absorbed | 8750 | 33.13 | 53.50 | 3.64 | 46.82 | 26.92 | 59.42 | water solubility compared with nitroxoline ([1]; conclusion in words): increased by several times; AUC0-inf ([4]; intravenous administration 0.01 mmol/kg): 1290 ng*hmL^−1 |

Source: patent US12152048B2, “Nitroxoline prodrug and use thereof” (Jiangsu Yahong Meditech Co., Ltd., priority 2018, dated 2024)
